Experimental data reported in patent EP0719281B1, “MULTIPLE BRANCH PEPTIDE CONSTRUCTIONS FOR USE AGAINST HIV” (priority 1993, dated 1995).
“Also recorded” adds a separate entry of the source. Bridge positions count the residues as written; N and C are the ends. Square brackets hold non-standard residues; d marks the D form. Ends that are not written are not given here. I, II: the chains in the order shown. βAla = NCCC(=O)O

How the values were obtained:
CEM or C8166 cells = details: concentrations of 10^-7 to 10^-4M; 15 days
Description: (§1) An MTT assay, a colorimetric cell viability assay using 3-[4,5-Dimethylthiazol-2-yl] 2,5-diphenyltetrazolium bromide, was used to assess the effect of MBPCs on cell viability. CEM or C8166 cells (5x10^4) were cultured continuously (15 days) in the presence of various concentrations of MBPCs in the wells of 96-well microtiter plates in 200 µl final volume of RPMI 1640 medium supplemented with 5% fetal calf serum, 1% glutamine, 1% streptomycin-penicillin (available from Gibco of Irvine, Scotland) in a humidified atmosphere with 5% CO2. Every 3 to 4 days, an MTT assay was performed on 100 µl of cells suspension and MBPC were added to cell culture and the volume completed to 200 µl.

HIV-1(89.6) = assay: Infection of and syncytia formation in human primary macrophages; type: cell-based; details: MBPC 5x10^-5M; 10,000 TCID50; 4 days post-infection
Description: Mononuclear cells were isolated from leukophoresis units enriched for monocytes by Ficoll-Hypaque density separation. Macrophages were purified by adherence to plastic in RPMI 1640 supplemented with 10% fetal calf serum and 5% human AB serum. […] After thorough washing, the cells were fed again with medium and analyzed for HIV-1 p24^gag production and syncytia formation 4 days post-infection.

[1] = test system: RT-deficient HIV-I(IIIB) isolate; assay: Inhibition of HIV-I induced cell fusion (8E5 cells co-cultivated with PHA stimulated human PBLs); type: cell-based; details: for Inhibition of HIV-I induced cell fusion (number of syncytia): after 24 hours
Description: 50 x 10^3 8E5 cells chronically infected with a RT-deficient HIV-I(IIIB) isolate, were co-cultivated with 150 x 10^3 phytohemagglutinin (PHA) stimulated human peripheral blood lymphocytes (PBLs) in the presence of the indicated peptide in 96-well plates. The MBPCs used are described by the peptides attached, and the number thereof, to a core lysine matrix, which is designated MLC. All amino acids used for this experiment were in dextro form.

8E5 cells = assay: Toxicity in the cell fusion test (MTT assay or trypan blue exclusion); details: Concentration (M) 5x10^-5
Description: Toxicity was evaluated by either MTT assay (described below) or trypan blue exclusion technique.
as §1

Compound | toxicity to cells (MTT assay) (CEM or C8166 cells) | infection of macrophages (in words) (HIV-1(89.6)) | Inhibition of HIV-I induced cell fusion (number of syncytia) ([1]; Concentration (M) 5x10^-5) | Inhibition of HIV-I induced cell fusion (number of syncytia) ([1]; Concentration (M) 5 x10^-6) | Inhibition of HIV-I induced cell fusion (number of syncytia) ([1]; Concentration (M) 5x10^-7) | Toxicity (8E5 cells) | syncytia formation / cell fusion (in words) [1] | Toxicity (8E5 cells; listed as [RKSIHIGPGRAFYT]4-MLC)
C[C@H](NC(=O)[C@H](CCCNC(=N)N)NC(=O)CNC(=O)[C@@H]1CCCN1C(=O)CN)C(=O)N[C@@H](Cc1ccccc1)C(=O)NCCCC[C@H](NC(=O)[C@H](Cc1ccccc1)NC(=O)[C@H](C)NC(=O)[C@H](CCCNC(=N)N)NC(=O)CNC(=O)[C@@H]1CCCN1C(=O)CN)C(=O)NCCCC[C@H](NC(=O)[C@H](CCCCNC(=O)[C@H](Cc1ccccc1)NC(=O)[C@H](C)NC(=O)[C@H](CCCNC(=N)N)NC(=O)CNC(=O)[C@@H]1CCCN1C(=O)CN)NC(=O)[C@H](Cc1ccccc1)NC(=O)[C@H](C)NC(=O)[C@H](CCCNC(=N)N)NC(=O)CNC(=O)[C@@H]1CCCN1C(=O)CN)C(=O)NCCCC[C@H](NC(=O)[C@H](CCCCNC(=O)[C@H](CCCCNC(=O)[C@H](Cc1ccccc1)NC(=O)[C@H](C)NC(=O)[C@H](CCCNC(=N)N)NC(=O)CNC(=O)[C@@H]1CCCN1C(=O)CN)NC(=O)[C@H](Cc1ccccc1)NC(=O)[C@H](C)NC(=O)[C@H](CCCNC(=N)N)NC(=O)CNC(=O)[C@@H]1CCCN1C(=O)CN)NC(=O)[C@H](CCCCNC(=O)[C@H](Cc1ccccc1)NC(=O)[C@H](C)NC(=O)[C@H](CCCNC(=N)N)NC(=O)CNC(=O)[C@@H]1CCCN1C(=O)CN)NC(=O)[C@H](Cc1ccccc1)NC(=O)[C@H](C)NC(=O)[C@H](CCCNC(=N)N)NC(=O)CNC(=O)[C@@H]1CCCN1C(=O)CN)C(=O)NCCC(=O)O [MBPC.3, (GPGRAF)8-(K)4-(K)2-K-βA-OH] | not toxic | – | – | – | – | – | – | –
[GPGRAF]8-MLCD | – | significantly less active than [GPGRAF]8-MLC | +++ | +++ | +++ | – | – | –
C[C@H](NC(=O)[C@@H](CCCNC(=N)N)NC(=O)CNC(=O)[C@@H]1CCCN1C(=O)CN)C(=O)N[C@@H](Cc1ccccc1)C(=O)NCCCC[C@H](NC(=O)[C@H](Cc1ccccc1)NC(=O)[C@H](C)NC(=O)[C@@H](CCCNC(=N)N)NC(=O)CNC(=O)[C@@H]1CCCN1C(=O)CN)C(=O)NCCCC[C@H](NC(=O)[C@H](CCCCNC(=O)[C@H](Cc1ccccc1)NC(=O)[C@H](C)NC(=O)[C@@H](CCCNC(=N)N)NC(=O)CNC(=O)[C@@H]1CCCN1C(=O)CN)NC(=O)[C@H](Cc1ccccc1)NC(=O)[C@H](C)NC(=O)[C@@H](CCCNC(=N)N)NC(=O)CNC(=O)[C@@H]1CCCN1C(=O)CN)C(=O)NCCCC[C@H](NC(=O)[C@H](CCCCNC(=O)[C@H](CCCCNC(=O)[C@H](Cc1ccccc1)NC(=O)[C@H](C)NC(=O)[C@@H](CCCNC(=N)N)NC(=O)CNC(=O)[C@@H]1CCCN1C(=O)CN)NC(=O)[C@H](Cc1ccccc1)NC(=O)[C@H](C)NC(=O)[C@@H](CCCNC(=N)N)NC(=O)CNC(=O)[C@@H]1CCCN1C(=O)CN)NC(=O)[C@H](CCCCNC(=O)[C@H](Cc1ccccc1)NC(=O)[C@H](C)NC(=O)[C@@H](CCCNC(=N)N)NC(=O)CNC(=O)[C@@H]1CCCN1C(=O)CN)NC(=O)[C@H](Cc1ccccc1)NC(=O)[C@H](C)NC(=O)[C@@H](CCCNC(=N)N)NC(=O)CNC(=O)[C@@H]1CCCN1C(=O)CN)C(=O)NCCC(=O)O [[GPG(R)DAF]8-MLC] | – | – | – | – | – | Toxic | – | –
[RKSIHTGPGRAFYT]4-MLC | – | – | – | - (- indicates the total absence of syncytia in the well) | +++ | Toxic | – | –
[RKSIHKGPGRAFYT]4-MLC | – | – | – | - (- indicates the total absence of syncytia in the well) | +++ | Toxic | – | –
[Ac-GPGRAF]8-MLC | – | – | - (- indicates the total absence of syncytia in the well) | +++ | +++ | – | significant loss of activity | –
[GPGRA]8-MLC | – | – | +++ | +++ | +++ | – | did not inhibit cell fusion | –
[GPGR]8-MLC | – | – | +++ | +++ | +++ | – | did not inhibit cell fusion | –
I: RKSIHIGPGRAFYTKK[βAla] / II: RKSIHIGPGRAFYTK / III: RKSIHIGPGRAFYT / IV: RKSIHIGPGRAFYT (amide I:15-IV:C, I:16-II:C, II:15-III:C) [MBPC.5] | – | – | – | – | – | – | – | some toxicity; also recorded: Toxic
[IGPGRAF]8-MLC | – | – | - (- indicates the total absence of syncytia in the well) | ± | +++ | – | significant loss of activity | –
